pIC50: −log10 of the molar value.
Target: 5-hydroxytryptamine receptor 2A (Homo sapiens, UniProt P28223)
Experiment: Antagonist activity at human 5HT2A receptor expressed in EC80 serotonin-stimulated CHOK1 cells by calcium mobilization assay
Assay type: functional, cell-based, CHO-K1

5-hydroxytryptamine receptor 2A, sequence (P28223 whole entry): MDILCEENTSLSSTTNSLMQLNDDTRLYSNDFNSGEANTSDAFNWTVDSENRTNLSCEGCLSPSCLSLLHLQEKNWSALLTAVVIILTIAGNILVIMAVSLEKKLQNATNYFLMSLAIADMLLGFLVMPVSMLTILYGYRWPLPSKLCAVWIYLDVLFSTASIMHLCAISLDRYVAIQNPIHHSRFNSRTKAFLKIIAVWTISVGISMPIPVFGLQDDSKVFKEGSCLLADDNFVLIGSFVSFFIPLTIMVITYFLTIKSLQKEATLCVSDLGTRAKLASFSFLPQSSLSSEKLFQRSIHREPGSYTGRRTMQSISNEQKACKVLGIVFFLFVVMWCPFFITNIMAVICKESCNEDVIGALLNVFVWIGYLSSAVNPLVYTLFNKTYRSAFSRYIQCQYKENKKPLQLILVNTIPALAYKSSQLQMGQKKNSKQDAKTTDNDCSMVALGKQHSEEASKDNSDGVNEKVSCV

pIC50: 5.34
Compound: COc1cc2c3c(c1OCc1ccccc1)-c1cc4c(cc1CC3N(C)CC2)OCO4 (stereo unspecified)

Reference: ChEMBL document CHEMBL1138595, “(+/-)-Nantenine analogs as antagonists at human 5-HT(2A) receptors: C1 and flexible congeners” (Bioorg Med Chem Lett, 2009)
